# Measured values: PubChem BioAssay AID200 (DTP/NCI, 2004)
# Where “and” joins values, the source holds several entries; their conditions need not be identical. Identical values can stand only once. Inconclusive results and toxic doses are left out. Where a SMILES comes first, the peptide text is derived from it.
# Tested on: B6C3F1 mice, B16 melanoma ip, median survival T/C
# Experiment: NCI In Vivo Anticancer Drug Screen. Data for tumor model B16 Melanoma (intraperitoneal) in B6C3F1 mice
# Conditions: endpoint: median survival time, higher = longer survival
# Method in brief: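 Antitumor effect was judged in mice with transplanted tumors by dividing the treated group's survival measure by that of vehicle controls.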
# [1] = dose: 6.25 mg/kg/injection, schedule: Q01DX009 (ip), vehicle: saline with Tween-80
# [2] = dose: 25.0 mg/kg/injection, schedule: Q01DX009 (ip), vehicle: saline with Tween-80
# [3] = dose: 50.0 mg/kg/injection, schedule: Q01DX009 (ip), vehicle: saline with Tween-80
# [4] = dose: 12.5 mg/kg/injection, schedule: Q01DX009 (ip), vehicle: saline with Tween-80
# [5] = dose: 100.0 mg/kg/injection, schedule: Q01DX009 (ip), vehicle: saline with Tween-80
# [6] = dose: 100.0 mg/kg/injection, schedule: Q01DX009 (ip), vehicle: Klucel (hydroxypropylcellulose) (HPC)
# [7] = dose: 200.0 mg/kg/injection, schedule: Q01DX009 (ip), vehicle: Klucel (hydroxypropylcellulose) (HPC)
# [8] = dose: 200.0 mg/kg/injection, schedule: Q01DX009 (ip), vehicle: saline with Tween-80
# [9] = dose: 1.0 mg/kg/injection, schedule: Q01DX009 (ip), vehicle: saline
# [10] = dose: 4.0 mg/kg/injection, schedule: Q01DX009 (ip), vehicle: saline
# [11] = dose: 50.0 mg/kg/injection, schedule: Q01DX009 (ip), vehicle: Klucel (hydroxypropylcellulose) (HPC)
# [12] = dose: 25.0 mg/kg/injection, schedule: Q01DX009 (ip), vehicle: saline
# [13] = dose: 50.0 mg/kg/injection, schedule: Q01DX009 (ip), vehicle: saline
smiles,measurement,setting,value
O=C(Oc1ccc(-c2ccc(Br)cc2)cc1)c1ccco1,T/C,"dose: 0.78 mg/kg/injection, schedule: Q01DX009 (ip), vehicle: saline with Tween-80",107 % of control
same,T/C,"dose: 1.56 mg/kg/injection, schedule: Q01DX009 (ip), vehicle: saline with Tween-80",106 % of control
same,T/C,"dose: 3.13 mg/kg/injection, schedule: Q01DX009 (ip), vehicle: saline with Tween-80",102 % of control
same,T/C,[1],111 % of control and 100 % of control
same,T/C,[2],92 % of control
same,T/C,[3],97 % of control
C/C(=N\NC(=S)N1CCN(c2ccccn2)CC1)c1ccccn1,T/C,"dose: 6.25 mg/kg/injection, schedule: Q01DX009 (ip), vehicle: water",99 % of control
same,T/C,"dose: 12.5 mg/kg/injection, schedule: Q01DX009 (ip), vehicle: water",99 % of control
same,T/C,"dose: 25.0 mg/kg/injection, schedule: Q01DX009 (ip), vehicle: water",111 % of control
CS(=O)(=O)CS(=O)(=O)OCCCl,T/C,[1],114 % of control
same,T/C,[4],116 % of control
same,T/C,[2],169 % of control and 178 % of control
same,T/C,[3],228 % of control and 270 % of control
same,T/C,[5],331 % of control
CC(C)CC(NC(=O)CNC(=O)C(CC(C)C)NC(=O)CN)C(=O)O (centres undefined) (H-GLGL-OH; configuration not given here),T/C,[6],120 % of control
same,T/C,[7],118 % of control
same,T/C,"dose: 400.0 mg/kg/injection, schedule: Q01DX009 (ip), vehicle: Klucel (hydroxypropylcellulose) (HPC)",122 % of control
COC1CC(C)C(OC)C2=CC(=O)C=C(NC(=O)/C(C)=C/C=C\C(C)C(OC(N)=O)/C(C)=C\C(C)C1OC)C2=O (centres undefined),T/C,"dose: 2.5 mg/kg/injection, schedule: Q01DX009 (ip), vehicle: saline + alcohol",176 % of control
same,T/C,"dose: 5.0 mg/kg/injection, schedule: Q01DX009 (ip), vehicle: saline + alcohol",155 % of control
same,T/C,"dose: 10.0 mg/kg/injection, schedule: Q01DX009 (ip), vehicle: saline + alcohol",174 % of control
CCOc1ccc(C(C)c2cc3c(cc2OC)OCO3)cc1 (centres undefined),T/C,"dose: 25.0 mg/kg/injection, schedule: Q01DX009 (ip), vehicle: distilled water + Tween-80",123 % of control
same,T/C,"dose: 50.0 mg/kg/injection, schedule: Q01DX009 (ip), vehicle: distilled water + Tween-80",107 % of control
C=C1COC(O)(C2OCOC(C3CC(=O)NC(=O)C3)C2O)C1C (centres undefined),T/C,"dose: 4.0 micrograms/kg/injection, schedule: Q01DX009 (ip), vehicle: water",94 % of control
same,T/C,"dose: 8.0 micrograms/kg/injection, schedule: Q01DX009 (ip), vehicle: water",111 % of control and 113 % of control
same,T/C,"dose: 16.0 micrograms/kg/injection, schedule: Q01DX009 (ip), vehicle: water",109 % of control
same,T/C,"dose: 32.0 micrograms/kg/injection, schedule: Q01DX009 (ip), vehicle: water",115 % of control
N#CCCN(C(=S)Nc1cccc(C(F)(F)F)c1)C1CCCCC1,T/C,"dose: 12.5 mg/kg/injection, schedule: Q01DX009 (ip), vehicle: suspension in saline",102 % of control
same,T/C,"dose: 25.0 mg/kg/injection, schedule: Q01DX009 (ip), vehicle: suspension in saline",100 % of control
same,T/C,"dose: 50.0 mg/kg/injection, schedule: Q01DX009 (ip), vehicle: suspension in saline",101 % of control
same,T/C,[5],113 % of control
same,T/C,"dose: 100.0 mg/kg/injection, schedule: Q01DX009 (ip), vehicle: suspension in saline",107 % of control
same,T/C,[8],94 % of control
same,T/C,"dose: 200.0 mg/kg/injection, schedule: Q01DX009 (ip), vehicle: suspension in saline",113 % of control
same,T/C,"dose: 400.0 mg/kg/injection, schedule: Q01DX009 (ip), vehicle: saline with Tween-80",89 % of control
same,T/C,"dose: 400.0 mg/kg/injection, schedule: Q01DX009 (ip), vehicle: suspension in saline",103 % of control
O=C(Nc1ccccc1)c1c(O)[nH]c(=O)[nH]c1=O,T/C,[4],103 % of control
same,T/C,[2],110 % of control and 100 % of control
same,T/C,[3],114 % of control and 115 % of control
COc1cc([C@@H]2c3cc4c(cc3[C@@H](OC3OC5CO[C@@H](c6cccs6)OC5C(O)C3O)[C@H]3COC(=O)[C@H]23)OCO4)cc(OC)c1O (some centres undefined),T/C,"dose: 0.25 mg/kg/injection, schedule: Q01DX009 (ip), vehicle: saline",110 % of control
same,T/C,"dose: 0.5 mg/kg/injection, schedule: Q01DX009 (ip), vehicle: saline",123 % of control
same,T/C,[9],122 % of control
same,T/C,[10],162 % of control
Cc1cc(N2C(=O)CCSC2=S)ccc1Cl,T/C,"dose: 12.5 mg/kg/injection, schedule: Q01DX009 (ip), vehicle: Klucel (hydroxypropylcellulose) (HPC)",92 % of control and 95 % of control
same,T/C,"dose: 25.0 mg/kg/injection, schedule: Q01DX009 (ip), vehicle: Klucel (hydroxypropylcellulose) (HPC)",90 % of control and 98 % of control
same,T/C,[11],94 % of control
same,T/C,[6],94 % of control and 98 % of control
same,T/C,[7],90 % of control and 97 % of control
C/C(=N\NC(N)=O)c1cccc(/C(C)=N/NC(N)=O)n1,T/C,[1],93 % of control
same,T/C,[4],96 % of control
same,T/C,[2],87 % of control
same,T/C,[3],90 % of control
CSCCC(N)C(=O)O (centres undefined),T/C,[12],106 % of control
same,T/C,[13],94 % of control
same,T/C,"dose: 100.0 mg/kg/injection, schedule: Q01DX009 (ip), vehicle: saline",100 % of control
same,T/C,"dose: 200.0 mg/kg/injection, schedule: Q01DX009 (ip), vehicle: saline",113 % of control
same,T/C,"dose: 400.0 mg/kg/injection, schedule: Q01DX009 (ip), vehicle: saline",99 % of control
O=C(Nc1ccccc1CCl)Nc1ccccc1CCl,T/C,[2],111 % of control
same,T/C,[3],115 % of control
same,T/C,[5],115 % of control
same,T/C,[8],118 % of control
O=C(O)CC1C(=O)OC2C3COC(=O)c4cc(O)c(O)c(O)c4-c4c(cc(O)c(O)c4O)C(=O)OC2C(OC(=O)c2cc(O)c(O)c4c2C1C(O)C(=O)O4)C(OC(=O)c1cc(O)c(O)c(O)c1)O3 (centres undefined),T/C,"dose: 6.25 mg/kg/injection, schedule: Q01DX009 (ip), vehicle: saline",94 % of control
same,T/C,"dose: 12.5 mg/kg/injection, schedule: Q01DX009 (ip), vehicle: saline",99 % of control
same,T/C,[12],100 % of control
same,T/C,[13],88 % of control
COC(=O)Nc1cn2ccc(C(Cl)=C(Cl)Cl)cc2n1,T/C,[11],111 % of control
same,T/C,[6],116 % of control
CC1CN1P1(N2CC2C)=NP(N2CC2C)(N2CC2C)=NP(N2CC2C)(N2CC2C)=N1 (centres undefined),T/C,[9],98 % of control
same,T/C,"dose: 1.0 mg/kg/injection, schedule: Q02DX009 (ip), vehicle: saline",96 % of control
same,T/C,"dose: 2.0 mg/kg/injection, schedule: Q01DX009 (ip), vehicle: saline",100 % of control
same,T/C,"dose: 2.0 mg/kg/injection, schedule: Q02DX009 (ip), vehicle: saline",102 % of control
same,T/C,[10],106 % of control
same,T/C,"dose: 4.0 mg/kg/injection, schedule: Q02DX009 (ip), vehicle: saline",101 % of control
same,T/C,"dose: 8.0 mg/kg/injection, schedule: Q01DX009 (ip), vehicle: saline",115 % of control
same,T/C,"dose: 8.0 mg/kg/injection, schedule: Q02DX009 (ip), vehicle: saline",105 % of control
same,T/C,"dose: 16.0 mg/kg/injection, schedule: Q01DX009 (ip), vehicle: saline",117 % of control
same,T/C,"dose: 32.0 mg/kg/injection, schedule: Q02DX009 (ip), vehicle: saline",122 % of control
same,T/C,"dose: 64.0 mg/kg/injection, schedule: Q01DX009 (ip), vehicle: saline",118 % of control
same,T/C,"dose: 64.0 mg/kg/injection, schedule: Q02DX009 (ip), vehicle: saline",94 % of control
CC(=O)O[C@H]1C(=O)[C@@]2(C)C(C(OC(=O)c3ccccc3)[C@]3(O)CC(OC(=O)[C@H](OC(=O)CCC(=O)O)C(NC(=O)c4ccccc4)c4ccccc4)C(C)=C1C3(C)C)C1(OC(C)=O)COC1C[C@@H]2O (some centres undefined),T/C,"dose: 1.25 mg/kg/injection, schedule: Q01DX009 (ip), vehicle: water",111 % of control
same,T/C,"dose: 2.5 mg/kg/injection, schedule: Q01DX009 (ip), vehicle: sodium bicarbonate",119 % of control
same,T/C,"dose: 2.5 mg/kg/injection, schedule: Q01DX009 (ip), vehicle: water",159 % of control
same,T/C,"dose: 5.0 mg/kg/injection, schedule: Q01DX009 (ip), vehicle: sodium bicarbonate",154 % of control
same,T/C,"dose: 5.0 mg/kg/injection, schedule: Q01DX009 (ip), vehicle: water",166 % of control
same,T/C,"dose: 10.0 mg/kg/injection, schedule: Q01DX009 (ip), vehicle: sodium bicarbonate",159 % of control
same,T/C,"dose: 10.0 mg/kg/injection, schedule: Q01DX009 (ip), vehicle: water",160 % of control and 183 % of control
same,T/C,"dose: 20.0 mg/kg/injection, schedule: Q01DX009 (ip), vehicle: sodium bicarbonate",154 % of control
same,T/C,"dose: 20.0 mg/kg/injection, schedule: Q01DX009 (ip), vehicle: water",160 % of control and 201 % of control
same,T/C,"dose: 40.0 mg/kg/injection, schedule: Q01DX009 (ip), vehicle: sodium bicarbonate",185 % of control
same,T/C,"dose: 40.0 mg/kg/injection, schedule: Q01DX009 (ip), vehicle: water",177 % of control and 218 % of control
